Source: US10639327B1, “Nano-calcium carbonate” (Washington University in St. Louis, priority 2015, dated 2020)

How the values were obtained:
2F2B cells = experiment: Fluorescent micrographs of cells treated with DOX nanoparticles vs free DOX; type: cell-based; conditions: 30 min treatment, DOX fluorescence
Experimental: FIG. 4A depicts fluorescent micrographs showing 2F2B cells treated for 30 min with αvβ3-targeted perfluorocarbon nanoparticles incorporating DOX (Left) vs. equimolar exposure of free DOX (Middle).
Not only was significant amount delivered to the nucleus (white arrow), the cytoplasmic content of DOX remained high (yellow arrow), providing a continuous source of DOX for nuclear translocation. […] The data also confirm that DOX fluorescence, which was used to obtain these images, will provide sufficient contrast for imaging DOX's intracellular trafficking to the nuclei.

HT1080 tumors = conditions: I.V., 0.3-0.4 g/Kg (~10x the nanoparticle dosage)
Experimental: For determining pHe changes in vivo post bolus particle Intravenous injection, HT1080 tumors were grown subcutaneously in dorsal flanks of athymic nude mice, in dorsal bilateral flanks. Tumors generally grew in one flank. When the tumors growth reached approximately 50 mm^3 or greater, the extracellular pH was measured using an external pH electrode. […] Treatments were discontinued for at least 5 days before performing the in vivo pH measurements. […] The pH was measured using an extracellular pH electrode implanted into the tumor following a 15 min equilibration period after electrode entry. The pH electrode was calibrated within the week. About 1 mg of each size of particles (20 nm, 100 nm, 300 nm) in a 100 μL solution of PBS, CaCl2, MgCl2 and 2% bovine serum albumin was injected intravenously in individual mice. […] Tumor sizes at time of injection for this experiment were 12 mm×9 mm (20 nm particles), 13.7 mm×12.5 mm (100 nm), 13.5 mm×15.5 mm (300 nm), 12.5×16.5 mm (0.84% bicarbonate), 12.5×16.5 mm (7.5% bicarbonate), and 12.5×16.5 mm (vector). In general, the pH was then followed each minute for a minimum of 1 hour, or up to 3 hours if any changes were seen. […] Bleeding, if any, was also noted.

SMILES | cytoplasmic content of DOX (2F2B cells) | tumor pH change (HT1080 tumors)
COc1cccc2c1C(=O)c1c(O)c3c(c(O)c1C2=O)C[C@@](O)(C(=O)CO)C[C@@H]3O[C@H]1C[C@H](N)[C@H](O)[C@H](C)O1 [free DOX, Doxorubicin] | depleted rapidly | 
O=C([O-])O.[Na+] [sodium bicarbonate] |  | did not induce a measurable pH change
